Series [1] is described as follows: Basic flow energy measurement (FT4 powder rheometer). The class given is physicochemical. As to conditions: 25 mm vessel, 23.5 mm blade. The protocol: Basic flow energy (BFE) is the energy required to establish a particular flow pattern in a conditioned, precise volume of powder. This flow pattern is a downward anti-clockwise motion of the blade, generating a compressive, relatively high stress flow mode in the powder. The BFE is calculated from the work done in moving the blade through the powder from the top of the vessel to the bottom, i.e. during the downward traverse.
In the present instance, the basic flow energy was measured using a FT4 powder rheometer from Freeman Technology under the following conditions: vessel size: 25 mm; standard Program Name: 25 mm_1C_Split_1 T; Starting accessory: 23.5 mm blade; Vessel: 25 mm×25 mL Split Vessel. The results were plotted in FIG. 9.

Series [2] can be described thus: Laser diffraction particle size measurement of particles of reference example 1 (Example 4). It counts as physicochemical. As to conditions: laser light diffraction, after 240 seconds sonication, FIG. 7. An excerpt: For the measurement, a Sympatec HELOS device with a focal length of 100 mm from Sympatec GmbH, Germany, equipped with a wet dispersion device Cuvette from Sympatec GmbH, Germany was used. The test substance was dispersed in white spirit, Brenntag Schweizerhall AG, Switzerland (catalog number 12200-150) using a dispersing aid (e.g. Statsafe™ 6000, INNOSPEC Limited, ca. 1% in the white spirit).
The particles were mixed intensively, e.g. on a vortex mixer, in order to wet the substance thoroughly and to form a smooth and homogeneous paste. The paste was diluted with the white spirit to a final volume of several milliliters and the stock dispersion was mixed again.
The test dispersion was prepared by diluting of the stock dispersion with white spirit for an appropriate optical concentration and the cumulative volume distribution was determined using a laser light diffraction instrument in accordance with the instruction manual. Measurements were made before sonication and after sonication for up to 600 seconds. The parameters were set as follows: 50% amplitude at the ultrasonication device USGD-100 from Telsonic AG, and a measuring duration of about 20 seconds. The measurement was carried out twice.
The particle sizes at the undersize values of 10%, 50% and 90% (x10, x50, x90) were evaluated from the cumulative volume distribution after 240 seconds sonication. This was determined to be representative of the primary particle sizes.

Series [3] in a line: Compressibility measurement (FT-4 powder rheometer). The class given is physicochemical. The conditions noted are these: measured at 15 kPa normal stress. An excerpt:
Compressibility is a measure of how density changes as a function of applied normal stress. By definition, compressibility is the percent change in volume after compression (%). The measurements were made using a FT-4 powder rheometer from Freeman technology. N-(5-cyano-4-((2-methoxyethyl)amino)pyridin-2-yl)-7-formyl-6-((4-methyl-2-oxopiperazin-1-yl)methyl)-3,4-dihydro-1,8-naphthyridine-1(2H)-carboxamide particles obtained by the process of the present invention and particles obtained by the process described in PCT/IB2014/065585 were placed in a vessel and a vented piston was used to compress the particles. The vented piston is designed such that the compression face is constructed from a woven stainless steel mesh and allows the entrained air in the powder to escape uniformly across the surface of the powder bed. A normal stress was applied in 8 sequential compression steps beginning at 0.5 kPa and ending at 15 kPa. In each step, the normal stress was held constant for 60 seconds and the compressibility was automatically calculated as a percentage change in volume. The results were plotted in FIG. 10. The compressibility percentage measured at 15 kPa was 54.14% and 54.63% for particles of the present invention. For the particles obtained by the process described in PCT/IB2014/065585, the compressibility percentage measured at 15 kPa was 49.93%.

The nature of series [4]: Wall friction angle measurement (FT-4 powder rheometer, stainless steel). The class given is physicochemical. As to conditions: 316 Stainless Steel discs, 1.2 microns average roughness. An excerpt:
The wall friction test method has been developed to assess the interaction between the drug substance and stainless steel. The apparatus used is a FT-4 powder rheometer from Freeman technology.
N-(5-cyano-4-((2-methoxyethyl)amino)pyridin-2-yl)-7-formyl-6-((4-methyl-2-oxopiperazin-1-yl)methyl)-3,4-dihydro-1,8-naphthyridine-1(2H)-carboxamide particles obtained by the process of the present invention and particles obtained by the process described in PCT/IB2014/065585 were placed in a vessel containing the sample and a wall friction head to induce both vertical and rotational stresses. The powder sample is prepared by conditioning and then pre-consolidation using the standard FT4 blade and vented piston.
The wall friction head equipped with 1.2 microns average roughness of 316 Stainless Steel discs moves downwards to the surface of the sample and induces a normal stress as the disc contacts the top of the sample. The head continues to move downwards until the required normal stress is established. […] The torque required to maintain this rotational is measured which enables a “steady-state” shear stress to be calculated. […] A series of shear stress values is measured for a range of target applied stresses. […] The wall friction angle is then calculated by drawing a best fit line through the data points on the graph, and measuring the angle subtended between this best fit line and the horizontal. […]

For series [5], the system named is HuH-7 hepatocellular carcinoma cells. The experiment in a line: Methylene blue staining proliferation assay (MBS). It counts as cell-based. The conditions noted are these: Homo sapiens, HuH-7 cells, 72 hours, read-out: HUH7 proliferation (nM) MBS. The protocol:
Using a liquid handling device (Velocity 11 Bravo, Agilent), serial 3-fold dilutions of compounds were prepared in DMSO, prediluted in growth medium, followed by transfer of 10 uL/well to the cell plates. […] For data analysis, the assay background was determined in wells containing medium and lysis buffer, but no cells, and the corresponding value subtracted from all data points. […] Compound concentrations leading to half-maximal signal inhibition ([…]) were determined by standard four parametric curve fitting (XLfit 5.4, IDBS). […] Optical density was measured at A650 nm. […]

For series [6] the test system is unchanged. The experiment in a line: CellTiter Glo (CTG) proliferation/viability assay. The conditions noted are these: Homo sapiens, 72 h, HuH-7 cells, 3 days, GI50, read-out: HUH7 proliferation (nM) CTG. The class given is cell-based. On the procedure:
CellTiter Glo (CTG) Assay: […] Compound-mediated suppression of cell proliferation/viability is assessed by quantification of cellular ATP levels using the CellTiter-Glo (CTG) reagent (Promega, Cat# G7573). Briefly, cells are seeded at 3'000 cells/well/80 μl fresh medium into tissue-culture-treated 96-well plates (Costar Cat#3904), followed by addition of 20 μl medium containing compound dilutions at 5-fold their final intended concentration. Dose-response effects are assessed by 3-fold serial dilutions of the test compound, starting at 10 μM. Following incubation of the cells for 3 days at 37° C. and 5% CO2, the effect of inhibitors on cell viability is quantified following addition of 50 μl CTG and luminescence measurement (integration time: 500 ms) as per vendor manual, using a correspondingly equipped multi-mode plate reader ([…], TECAN, Switzerland). For data analysis, the assay background value determined in wells containing medium, but no cells, is subtracted from all data points. To enable differentiation of cytotoxic from cytostatic compounds, the number of viable cells is assessed relative to that observed at the time of compound addition using a separate cell plate (day 0). […] Compound concentrations leading to half-maximal growth inhibition (GI50) are determined using standard four parameter curve fitting (XLfit 5.2, IDBS, UK).
On the technique in general: Cellular ATP, detected with luciferase, serves as a proxy for viable cell number.

SMILES strings stand for the structures. Structures can show the parent of a compound that is named as a salt.

Regarding `COCCNc1cc(NC(=O)N2CCCc3cc(CN4CCN(C)CC4=O)c(C=O)nc32)ncc1C#N.O=C(O)CC(O)(CC(=O)O)C(=O)O` [Example 1a, N-(5-cyano-4-((2-methoxyethyl)amino)pyridin-2-yl)-7-formyl-6-((4-methyl-2-oxopiperazin-1-yl)methyl)-3,4-dihydro-1,8-naphthyridine-1(2H)-carboxamide in citric acid form (1:1)], in series [1], the basic flow energy is listed as 39.17 mJ.
For `COCCNc1cc(NC(=O)N2CCCc3cc(CN4CCN(C)CC4=O)c(C=O)nc32)ncc1C#N.O=C(O)CC(O)(CC(=O)O)C(=O)O` [Reference Example 1, N-(5-cyano-4-((2-methoxyethyl)amino)pyridin-2-yl)-7-formyl-6-((4-methyl-2-oxopiperazin-1-yl)methyl)-3,4-dihydro-1,8-naphthyridine-1(2H)-carboxamide in citric acid form (1:1)], in series [2], the “median particle size (x50 or d50)” value is given as “about 3 microns”, the “particle size x10 or d10” value was “about 1 micron” and the “particle size x90 or d90” value was “about 7 micron”. Also, the basic flow energy in series [1] (listed as particles obtained by the process described in PCT/IB2014/065585) was 185.20 mJ. This compound also returned a compressibility percentage in series [3] of 49.93%. This compound showed a wall friction angle in series [4] of 43.18 °.
With `COCCNc1cc(NC(=O)N2CCCc3cc(CN4CCN(C)CC4=O)c(C=O)nc32)ncc1C#N` [Example 1, N-(5-cyano-4-((2-methoxyethyl)amino)pyridin-2-yl)-7-formyl-6-((4-methyl-2-oxopiperazin-1-yl)methyl)-3,4-dihydro-1,8-naphthyridine-1(2H)-carboxamide in citric acid salt form 1:1], the IC50 in series [5] turned out to be 12 nM; in series [6], 60.9 nM. This compound also returned a basic flow energy in series [1] of 65.07 mJ.

(Values after patent publication US9802917B2, “Particles of N-(5-cyano-4-((2-methoxyethyl)amino)pyridin-2-yl)-7-formyl-6-((4-methyl-2-oxopiperazin-1-yl)methyl)-3,4-dihydro-1,8-naphthyridine-1(2H)-carboxamide” (Novartis AG, priority 2015, dated 2017).)
